Test system: Trypanosoma cruzi
Test: Antitrypanosomal activity against Trypanosoma cruzi Y trypomastigotes after 1 day
Type: functional, organism-based
Conditions: 24 h

Structure (SMILES) | IC50 [µM]
CC1(C)OC2=C(C(=O)C(=O)c3ccccc32)C1n1cc(-c2ccccc2)nn1 (centres undefined) | 17.3
CC1(C)OC2=C(C(=O)C(=O)c3ccccc32)C1n1cc(COC2CCCCO2)nn1 (centres undefined) | 257
CC1(C)OC2=C(C(=O)C(=O)c3ccccc32)C1N=[N+]=[N-] (centres undefined) | 50.2
CC1(C)OC2=C(C(=O)C(=O)c3ccccc32)C1n1cc(CO)nn1 (centres undefined) | 348
O=C(Cn1ccnc1[N+](=O)[O-])NCc1ccccc1 [BENZNIDAZOLE] | 104

Continued by falling IC50, values first:

IC50 [µM] | Structure (SMILES)
1280 | CC(C)=CC1=C(O)C(=O)c2ccccc2C1=O
536 | CN(C)c1ccc(C(=C2C=CC(=[N+](C)C)C=C2)c2ccc(N(C)C)cc2)cc1 [GENTIAN VIOLET]
152 | CC(C)(O)c1cn(C2C3=C(OC2(C)C)c2ccccc2C(=O)C3=O)nn1 (centres undefined)
57.8 | CC1(C)OC2=C(C(=O)C(=O)c3ccccc32)C1n1cc(C2(O)CCCCC2)nn1 (centres undefined)

Reference: ChEMBL document CHEMBL1140963, “Naphthoquinoidal [1,2,3]-triazole, a new structural moiety active against Trypanosoma cruzi” (Eur J Med Chem, 2008)
